US9783556B2, “Kinase inhibitors” (RESPIVERT LIMITED, priority 2012, dated 2017)

What was measured:
GSK 3α = GSK 3α (Homo sapiens (Human), UniProt P49840); experiment: GSK 3α enzyme inhibition (Z-LYTE FRET); assay type: biochemical; settings: read-out: IC50 Values for Enzyme Inhibition GSK3α
Procedure: (§1) The enzyme inhibitory activities of compounds disclosed herein are determined by FRET using synthetic peptides labelled with both donor and acceptor fluorophores (Z-LYTE, Invitrogen Ltd., Paisley, UK).
The following two assay variants can be used for determination of GSK 3α inhibition.
The inhibitory activities of compounds of the invention against the GSK 3α enzyme isoform (Invitrogen), are evaluated by determining the level of activation/phosphorylation of the target peptide. The GSK3-α protein (500 ng/mL, 2.5 μL) is mixed with the test compound (2.5 μL at either 4 μg/mL, 0.4 μg/mL, 0.04 μg/mL, or 0.004 μg/mL) for 2 hr at RT. The FRET peptide (8 μM, 2.5 μL), which is a phosphorylation target for GSK3α, and ATP (40 μM, 2.5 μL) are then added to the enzyme/compound mixture and the resulting mixture incubated for 1 hr. Development reagent (protease, 5 μL) is added for 1 hr prior to detection in a fluorescence microplate reader (Varioskan® Flash, ThermoFisher Scientific).
(§2) In all cases, the site-specific protease cleaves non-phosphorylated peptide only and eliminates the FRET signal. Phosphorylation levels of each reaction are calculated using the ratio of coumarin emission (donor) over fluorescein emission (acceptor), for which high ratios indicate high phosphorylation and low ratios indicate low phosphorylation levels. The percentage inhibition of each reaction is calculated relative to non-inhibited control and the 50% inhibitory concentration (IC50 value) is then calculated from the concentration-response curve.
This method follows the same steps as Method 1 above, but utilises a shorter period of mixing of the test compound (105 minutes instead of 2 hours) with the GSK3-α protein.

PBMCs [1] = experiment: LPS-induced TNFα/IL-8 release in PBMC cells; assay type: cell-based; settings: Homo sapiens, LPS-stimulated PBMCs, IL-8, read-out: IC50 Values for Inhibition of Cytokine Release PBMCs IL-8
Procedure: Peripheral blood mononuclear cells (PBMCs) from healthy subjects are separated from whole blood using a density gradient (Lymphoprep, Axis-Shield Healthcare). The PBMCs are seeded in 96 well plates and treated with compounds at the desired concentration for 2 hours before addition of 1 ng/mL LPS (Escherichia Coli 0111:B4 from Sigma Aldrich) for 24 hours under normal tissue culture conditions (37° C., 5% CO2). The supernatant is harvested for determination of IL-8 and TNFα concentrations by sandwich ELISA (Duo-set, R&D systems) and read on the fluorescence microplate reader (Varioskan® Flash, ThermoFisher Scientific). The concentration at 50% inhibition (IC50) of IL-8 and TNFα production is calculated from the dose response curve.

[2] = molecular target: p38 MAPKα isoform (MAPK14) (Homo sapiens (Human), UniProt Q16539); experiment: p38 MAPKα enzyme inhibition (Z-LYTE FRET); assay type: biochemical
Sequence of p38 MAPKα isoform (MAPK14) (Q16539 whole entry, canonical isoform): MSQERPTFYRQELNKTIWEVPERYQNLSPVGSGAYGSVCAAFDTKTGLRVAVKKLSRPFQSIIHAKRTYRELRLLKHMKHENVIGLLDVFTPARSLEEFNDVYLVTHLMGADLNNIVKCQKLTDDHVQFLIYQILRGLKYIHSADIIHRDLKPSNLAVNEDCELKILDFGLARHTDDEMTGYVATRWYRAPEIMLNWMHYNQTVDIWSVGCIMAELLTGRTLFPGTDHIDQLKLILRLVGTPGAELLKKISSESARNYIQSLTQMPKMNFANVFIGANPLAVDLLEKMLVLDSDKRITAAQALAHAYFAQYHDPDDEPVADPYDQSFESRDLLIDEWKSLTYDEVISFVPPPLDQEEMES
Procedure: as §1
The following two assay variants can be used for determination of p38 MAPKα inhibition.
The inhibitory activities of test compounds against the p38 MAPKα isoform (MAPK14: Invitrogen), are evaluated indirectly by determining the level of activation/phosphorylation of the down-stream molecule, MAPKAP-K2. The p38 MAPKα protein (80 ng/mL, 2.5 μL) is mixed with the test compound (2.5 μL of either 4 μg/mL, 0.4 μg/mL, 0.04 μg/mL or 0.004 μg/mL) for 2 hr at RT. […] The mixture is incubated for 1 hr at RT. Development reagent (protease, 5 μL) is added for 1 hr prior to detection in a fluorescence microplate reader (Varioskan® Flash, ThermoFisher Scientific).
This method follows the same steps as Method 1 above, but utilises a higher concentration of the p38 MAPKα protein (2.5 μL of 200 ng/mL protein instead of 2.5 μL of 80 ng/mL protein) for mixing with the test compound.
as §2

c-Src = c-Src (Homo sapiens (Human), UniProt P12931); experiment: c-Src enzyme inhibition (Z-LYTE FRET); assay type: biochemical
Sequence of c-Src (P12931 whole entry, looked up): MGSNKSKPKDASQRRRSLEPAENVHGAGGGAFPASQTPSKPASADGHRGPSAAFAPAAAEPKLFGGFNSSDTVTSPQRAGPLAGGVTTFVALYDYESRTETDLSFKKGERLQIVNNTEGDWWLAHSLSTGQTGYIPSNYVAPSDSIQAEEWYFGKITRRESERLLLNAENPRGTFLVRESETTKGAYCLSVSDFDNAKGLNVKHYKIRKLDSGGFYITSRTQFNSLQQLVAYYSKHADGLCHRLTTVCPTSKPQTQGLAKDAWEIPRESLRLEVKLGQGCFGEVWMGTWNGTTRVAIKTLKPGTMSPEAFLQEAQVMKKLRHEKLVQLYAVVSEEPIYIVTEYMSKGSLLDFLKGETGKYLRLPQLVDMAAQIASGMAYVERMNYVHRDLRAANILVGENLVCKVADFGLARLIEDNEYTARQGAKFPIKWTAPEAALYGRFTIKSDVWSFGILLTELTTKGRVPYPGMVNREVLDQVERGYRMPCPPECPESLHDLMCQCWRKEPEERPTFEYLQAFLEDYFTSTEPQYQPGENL
Procedure: as §1
(§3) The inhibitory activities of compounds of the invention against c-Src and Syk enzymes (Invitrogen), are evaluated in a similar fashion to that described hereinabove. The relevant enzyme (3000 ng/mL or 2000 ng/mL respectively, 2.5 μL) is incubated with the test compound (either 4 μg/mL, 0.4 μg/mL, 0.04 μg/mL, or 0.004 μg/mL, 2.5 μL each) for 2 hr at RT. The FRET peptides (8 μM, 2.5 μL), and appropriate ATP solutions (2.5 μL, 800 μM for c-Src, and 60 μM ATP for Syk) are then added to the enzymes/compound mixtures and incubated for 1 hr. Development reagent (protease, 5 μL) is added for 1 hr prior to detection in a fluorescence microplate reader (Varioskan® Flash, ThermoFisher Scientific).
as §2

Syk = Syk (Homo sapiens (Human), UniProt P43405); experiment: Syk enzyme inhibition (Z-LYTE FRET); assay type: biochemical
Procedure: as §1, §3, §2

PBMCs [3] = experiment: IL-2 and IFN gamma release in CD3/CD28 stimulated PBMC cells; assay type: cell-based; settings: Homo sapiens, IL-2, read-out: IC50 Values for Inhibition of Cytokine Release PBMCs IL-2
Procedure: PBMCs from healthy subjects are separated from whole blood using a density gradient (Lymphoprep, Axis-Shield Healthcare). Cells are added to a 96 well plate pre-coated with a mixture of CD3/CD38 monoclonal antibodies (0.3 μg/mL eBioscience and 3 μg/mL BD Pharmingen respectively). Compound at the desired concentration is then added to the wells and the plate left for 3 days under normal tissue culture conditions. Supernatants are harvested and IL-2 and IFN gamma release determined by Sandwich ELISA (Duo-set, R&D System). The IC50 is determined from the dose response curve.

HT29 cells = experiment: IL-1β-induced IL-8 release in HT29 cells; assay type: cell-based; settings: Homo sapiens, HT-29, IL-1β-stimulated HT29 cells, read-out: IC50 Values for Inhibition of Cytokine Release HT29 cells IL-8
Procedure: HT29 cells, a human colon adenocarcinoma cell line, are plated in a 96 well plate (24 hrs) and pre-treated with compounds at the desired concentration for 2 hours before addition of 5 ng/mL of IL-1β (Abcam) for 24 hours. Supernatants are harvested for IL-8 quantification by Sandwich ELISA (Duo-set, R&D System). The IC50 is determined from the dose response curve.

Sequence of GSK 3α (P49840 whole entry): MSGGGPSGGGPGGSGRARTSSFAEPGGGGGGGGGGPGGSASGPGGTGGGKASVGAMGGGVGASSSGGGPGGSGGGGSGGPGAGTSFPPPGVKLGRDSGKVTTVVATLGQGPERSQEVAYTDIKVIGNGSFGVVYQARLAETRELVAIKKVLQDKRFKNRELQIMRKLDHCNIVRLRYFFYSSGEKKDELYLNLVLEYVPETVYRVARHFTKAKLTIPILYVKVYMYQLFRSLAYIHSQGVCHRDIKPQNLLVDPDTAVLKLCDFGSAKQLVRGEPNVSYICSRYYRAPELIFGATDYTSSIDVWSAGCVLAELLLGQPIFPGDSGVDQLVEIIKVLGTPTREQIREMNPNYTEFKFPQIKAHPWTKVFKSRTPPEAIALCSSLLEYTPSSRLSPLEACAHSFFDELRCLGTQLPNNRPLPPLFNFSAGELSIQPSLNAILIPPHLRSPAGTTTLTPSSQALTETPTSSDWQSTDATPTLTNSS

Structure (SMILES) | IC50 (GSK 3α) [nM] | IC50 (PBMCs [1]) [nM] | IC50 [2] [nM] | IC50 (c-Src) [nM] | IC50 (Syk) [nM] | IC50 (PBMCs [3]) [nM] | IC50 (HT29 cells) [nM]
Cc1ccc(-n2nc([Si](C)(C)C(C)(C)C)cc2NC(=O)Nc2ccc(Oc3ccnc(Nc4ccccc4)n3)c3ccccc23)cc1 [Example 5, 1-(3-(tert-Butyldimethylsilyl)-1-(p-tolyl)-1H-pyrazol-5-yl)-3-(4-((2-(phenylamino)pyrimidin-4-yl)oxy)naphthalen-1-yl)urea] | 5010 | 113 |  |  |  |  | 
Cc1ccc(-n2nc([Si](C)(C)C)cc2NC(=O)Nc2ccc(Oc3ccnc(Nc4cc(C)c5[nH]ncc5c4)n3)c(Cl)c2Cl)cc1 [Example 17, 1-(2,3-Dichloro-4-((2-((7-methyl-1H-indazol-5-yl)amino)pyrimidin-4-yl)oxy)phenyl)-3-(1-(p-tolyl)-3-(trimethylsilyl)-1H-pyrazol-5-yl)urea] | > 10000 | 8 |  |  |  |  | 
COc1cc(Nc2nccc(Oc3ccc(NC(=O)Nc4cc([Si](C)(C)C)nn4-c4ccc(C)cc4)c(Cl)c3Cl)n2)cc(OCCN2CCOCC2)c1 [Example 18, 1-(2,3-Dichloro-4-((2-((3-methoxy-5-(2-morpholinoethoxy)phenyl)amino)pyrimidin-4-yl)oxy)phenyl)-3-(1-(p-tolyl)-3-(trimethylsilyl)-1H-pyrazol-5-yl)urea] | > 10000 | 2.7 | > 1000 | 41 | 59 |  | 
Cc1cc(Nc2nccc(Oc3ccc(NC(=O)Nc4cc([Si](C)(C)C)nn4-c4ccc(OCCN5CCOCC5)cc4)c4ccccc34)n2)cc2cn[nH]c12 [Example 15, 1-(4-((2-((7-Methyl-1H-indazol-5-yl)amino)pyrimidin-4-yl)oxy)naphthalen-1-yl)-3-(1-(4-(2-morpholinoethoxy)phenyl)-3-(trimethylsilyl)-1H-pyrazol-5-yl)urea] | 3490 | 2.2 | 253 | 15 | 24 | 30.7 | 6.5
CC[Si](C)(C)c1cc(NC(=O)Nc2ccc(Oc3ccnc(Nc4ccccc4)n3)c3ccccc23)n(-c2ccc(C)cc2)n1 [Example 16, 1-(3-(Ethyldimethylsilyl)-1-(p-tolyl)-1H-pyrazol-5-yl)-3-(4-((2-(phenylamino)pyrimidin-4-yl)oxy)naphthalen-1-yl)urea] | > 10000 | 14.8 |  | 116 | > 1000 |  | 
Cc1ccc(-n2nc([Si](C)(C)C)cc2NC(=O)Nc2ccc(Oc3ccnc(Nc4cccc(OCCN(C)C)c4)n3)c3ccccc23)cc1 [Example 11, 1-(4-((2-((3-(2-(Dimethylamino)ethoxy)phenyl)amino)pyrimidin-4-yl)oxy)naphthalen-1-yl)-3-(1-(p-tolyl)-3-(trimethylsilyl)-1H-pyrazol-5-yl)urea] | 690 | 1.4 |  |  |  |  | 
COc1cc(Nc2nccc(Oc3ccc(NC(=O)Nc4cc([Si](C)(C)C)nn4-c4ccc(C)cc4)c4ccccc34)n2)cc(C(=O)NC[C@H](O)[C@@H](O)[C@H](O)[C@H](O)CO)c1 [Example 19, 3-Methoxy-N-((2S,3R,4R,5R)-2,3,4,5,6-pentahydroxyhexyl)-5-((4-((4-(3-(1-(p-tolyl)-3-(trimethylsilyl)-1H-pyrazol-5-yl)ureido)naphthalen-1-yl)oxy)pyrimidin-2-yl)amino)-benzamide] | 6730 | 76 |  |  |  |  | 
Cc1ccc(-n2nc([Si](C)(C)C)cc2NC(=O)Nc2ccc(Oc3ccnc(Nc4ccccn4)n3)c3ccccc23)cc1 [Example 14, 1-(4-((2-(pyridin-2-ylamino)pyrimidin-4-yl)oxy)naphthalen-1-yl)-3-(1-(p-tolyl)-3-(trimethylsilyl)-1H-pyrazol-5-yl)urea] | > 10000 | 36.6 |  | 360 | > 1000 |  | 
COc1cc(Nc2nccc(Oc3ccc(NC(=O)Nc4cc([Si](C)(C)C)nn4-c4ccc(C)cc4)c4ccccc34)n2)cc(C(=O)NCCN2CCOCC2)c1 [Example 12, 3-Methoxy-N-(2-morpholinoethyl)-5-((4-((4-(3-(1-(p-tolyl)-3-(trimethylsilyl)-1H-pyrazol-5-yl)ureido)naphthalen-1-yl)oxy)pyrimidin-2-yl)amino)benzamide] | 1920 | 0.9 | 142 | 10 | 17 | 28.2 | 
CC[Si](CC)(CC)c1cc(NC(=O)Nc2ccc(Oc3ccnc(Nc4ccccc4)n3)c3ccccc23)n(-c2ccc(C)cc2)n1 [Example 4, 1-(4-((2-(phenylamino)pyrimidin-4-yl)oxy)naphthalen-1-yl)-3-(1-(p-tolyl)-3-(triethylsilyl)-1H-pyrazol-5-yl)urea] | > 10000 | 95.9 |  |  |  |  | 
Cc1ccc(-n2nc([Si](C)(C)C)cc2NC(=O)Nc2ccc(Oc3ccnc(Nc4ccc5onc(N)c5c4)n3)c3ccccc23)cc1 [Example 8, 1-(4-((2-((3-Aminobenzo[d]isoxazol-5-yl)amino)pyrimidin-4-yl)oxy)naphthalen-1-yl)-3-(1-(p-tolyl)-3-(trimethylsilyl)-1H-pyrazol-5-yl)urea] | 2150 | 3.9 | > 1000 | 37 | 269 |  | 
Cc1ccc(-n2nc([Si](C)(C)C)cc2NC(=O)Nc2ccc(Oc3ccnc(Nc4ccc5c(c4)CNC5=O)n3)c3ccccc23)cc1 [Example 20, 1-(4-((2-((1-Oxoisoindolin-5-yl)amino)pyrimidin-4-yl)oxy)naphthalen-1-yl)-3-(1-(p-tolyl)-3-(trimethylsilyl)-1H-pyrazol-5-yl)urea] | 345 | 1.8 |  |  |  |  | 
